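Growth conditions: 96-well plates. Treatment: test compound, 48 hours, 5 concentrations. Analysis: linear interpolation between bracketing concentrations; unreached endpoints set to highest concentration. The concentration for full growth arrest is given as TGI.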
Columns and labels:
Experiment in all cases: DTP human tumour cell line panel, 48 h
SW-620 colon = test system: SW-620 colon
UACC-62 melanoma = test system: UACC-62 melanoma
K-562 leukemia = test system: K-562 leukemia
SR leukemia = test system: SR leukemia
COLO 205 colon = test system: COLO 205 colon
NCI-H460 lung = test system: NCI-H460 lung
SNB-19 CNS = test system: SNB-19 CNS
RXF 393 renal = test system: RXF 393 renal
MOLT-4 leukemia = test system: MOLT-4 leukemia
OVCAR-4 ovarian = test system: OVCAR-4 ovarian
OVCAR-5 ovarian = test system: OVCAR-5 ovarian
ACHN renal = test system: ACHN renal
HOP-92 NSCLC = test system: HOP-92 NSCLC
HS 578T breast = test system: HS 578T breast
786-0 renal = test system: 786-0 renal
UO-31 renal = test system: UO-31 renal
TK-10 renal = test system: TK-10 renal
NCI-H23 lung = test system: NCI-H23 lung
A498 renal = test system: A498 renal
SN12C renal = test system: SN12C renal
HL-60(TB) leukemia = test system: HL-60(TB) leukemia
A549 NSCLC = test system: A549 NSCLC
KM12 colon = test system: KM12 colon
SF-268 CNS = test system: SF-268 CNS
SF-539 CNS = test system: SF-539 CNS
SNB-75 CNS = test system: SNB-75 CNS
HCT-15 colon = test system: HCT-15 colon
SK-MEL-28 melanoma = test system: SK-MEL-28 melanoma
SK-MEL-2 melanoma = test system: SK-MEL-2 melanoma
MDA-MB-435 = test system: MDA-MB-435
BT-549 breast = test system: BT-549 breast
HOP-62 NSCLC = test system: HOP-62 NSCLC
CAKI-1 renal = test system: CAKI-1 renal
M14 melanoma = test system: M14 melanoma
NCI-H226 lung = test system: NCI-H226 lung
IGROV1 ovarian = test system: IGROV1 ovarian
OVCAR-8 ovarian = test system: OVCAR-8 ovarian
T-47D breast = test system: T-47D breast
HT29 colon = test system: HT29 colon
HCC-2998 colon = test system: HCC-2998 colon
MCF7 breast = test system: MCF7 breast
MDA-MB-231 breast = test system: MDA-MB-231 breast
HCT-116 colon = test system: HCT-116 colon
EKVX NSCLC = test system: EKVX NSCLC
SF-295 CNS = test system: SF-295 CNS
PC-3 prostate = test system: PC-3 prostate
OVCAR-3 ovarian = test system: OVCAR-3 ovarian
LOX IMVI melanoma = test system: LOX IMVI melanoma
DU-145 prostate = test system: DU-145 prostate
MDA-N = test system: MDA-N
U251 CNS = test system: U251 CNS
SK-OV-3 ovarian = test system: SK-OV-3 ovarian
SK-MEL-5 melanoma = test system: SK-MEL-5 melanoma
CCRF-CEM leukemia = test system: CCRF-CEM leukemia
MALME-3M melanoma = test system: MALME-3M melanoma
NCI-H522 lung = test system: NCI-H522 lung
UACC-257 melanoma = test system: UACC-257 melanoma
NCI/ADR-RES ovarian = test system: NCI/ADR-RES ovarian
RPMI-8226 leukemia = test system: RPMI-8226 leukemia

COc1ccc(C2=Cc3nc2c(-c2ccccc2)c2ccc([nH]2)c(-c2ccccc2)c2nc(c(-c4ccccc4)c4ccc([nH]4)c3-c3ccccc3)C=C2)cc1
TGI (SW-620 colon): > 100 µM
TGI (UACC-62 melanoma): > 100 µM
TGI (K-562 leukemia): > 100 µM
TGI (SR leukemia): > 100 µM
TGI (COLO 205 colon): > 100 µM
TGI (NCI-H460 lung): > 100 µM
TGI (SNB-19 CNS): > 100 µM
TGI (RXF 393 renal): > 100 µM
TGI (MOLT-4 leukemia): > 100 µM
TGI (OVCAR-4 ovarian): > 100 µM
TGI (OVCAR-5 ovarian): > 100 µM
TGI (ACHN renal): > 100 µM
TGI (HOP-92 NSCLC): > 100 µM
TGI (HS 578T breast): > 100 µM
TGI (786-0 renal): > 100 µM
TGI (UO-31 renal): > 100 µM
TGI (TK-10 renal): > 100 µM
TGI (NCI-H23 lung): > 100 µM
TGI (A498 renal): > 100 µM
TGI (SN12C renal): > 100 µM
TGI (HL-60(TB) leukemia): > 100 µM
TGI (A549 NSCLC): > 100 µM
TGI (KM12 colon): > 100 µM
TGI (SF-268 CNS): > 100 µM
TGI (SF-539 CNS): > 100 µM
TGI (SNB-75 CNS): > 100 µM
TGI (HCT-15 colon): > 100 µM
TGI (SK-MEL-28 melanoma): > 100 µM
TGI (SK-MEL-2 melanoma): > 100 µM
TGI (MDA-MB-435): > 100 µM
TGI (BT-549 breast): > 100 µM
TGI (HOP-62 NSCLC): > 100 µM
TGI (CAKI-1 renal): > 100 µM
TGI (M14 melanoma): > 100 µM
TGI (NCI-H226 lung): > 100 µM
TGI (IGROV1 ovarian): > 100 µM
TGI (OVCAR-8 ovarian): > 100 µM
TGI (T-47D breast): > 100 µM
TGI (HT29 colon): > 100 µM
TGI (HCC-2998 colon): > 100 µM
TGI (MCF7 breast): > 100 µM
TGI (MDA-MB-231 breast): > 100 µM
TGI (HCT-116 colon): > 100 µM
TGI (EKVX NSCLC): > 100 µM
TGI (SF-295 CNS): > 100 µM
TGI (PC-3 prostate): > 100 µM
TGI (OVCAR-3 ovarian): > 100 µM
TGI (LOX IMVI melanoma): > 100 µM
TGI (DU-145 prostate): > 100 µM
TGI (MDA-N): > 100 µM
TGI (U251 CNS): 91.3 µM
TGI (SK-OV-3 ovarian): > 100 µM
TGI (SK-MEL-5 melanoma): > 100 µM
TGI (CCRF-CEM leukemia): > 100 µM
TGI (MALME-3M melanoma): > 100 µM

CC[C@@]1(C[C@H]2C[C@@]3(C(=O)OC)c4[nH]c5ccccc5c4CCN3C2=S)COC2(CCCCC2)O1
TGI (SW-620 colon): 36.2 µM
TGI (UACC-62 melanoma): > 100 µM
TGI (K-562 leukemia): > 100 µM
TGI (SR leukemia): > 100 µM
TGI (COLO 205 colon): > 100 µM
TGI (NCI-H460 lung): > 100 µM
TGI (SNB-19 CNS): > 100 µM
TGI (RXF 393 renal): > 100 µM
TGI (MOLT-4 leukemia): > 100 µM
TGI (OVCAR-4 ovarian): > 100 µM
TGI (OVCAR-5 ovarian): > 100 µM
TGI (ACHN renal): > 100 µM
TGI (NCI-H522 lung): > 100 µM
TGI (HOP-92 NSCLC): > 100 µM
TGI (HS 578T breast): > 100 µM
TGI (786-0 renal): > 100 µM
TGI (UO-31 renal): > 100 µM
TGI (TK-10 renal): 87.7 µM
TGI (NCI-H23 lung): > 100 µM
TGI (A498 renal): > 100 µM
TGI (SN12C renal): > 100 µM
TGI (HL-60(TB) leukemia): > 100 µM
TGI (A549 NSCLC): > 100 µM
TGI (KM12 colon): 67.8 µM
TGI (SF-268 CNS): > 100 µM
TGI (SF-539 CNS): > 100 µM
TGI (SNB-75 CNS): > 100 µM
TGI (HCT-15 colon): > 100 µM
TGI (SK-MEL-2 melanoma): > 100 µM
TGI (MDA-MB-435): > 100 µM
TGI (BT-549 breast): 41.6 µM
TGI (HOP-62 NSCLC): > 100 µM
TGI (CAKI-1 renal): > 100 µM
TGI (M14 melanoma): > 100 µM
TGI (IGROV1 ovarian): > 100 µM
TGI (OVCAR-8 ovarian): > 100 µM
TGI (T-47D breast): > 100 µM
TGI (HT29 colon): > 100 µM
TGI (HCC-2998 colon): > 100 µM
TGI (UACC-257 melanoma): > 100 µM
TGI (MCF7 breast): > 100 µM
TGI (HCT-116 colon): > 100 µM
TGI (EKVX NSCLC): > 100 µM
TGI (SF-295 CNS): > 100 µM
TGI (PC-3 prostate): > 100 µM
TGI (OVCAR-3 ovarian): > 100 µM
TGI (LOX IMVI melanoma): > 100 µM
TGI (DU-145 prostate): > 100 µM
TGI (NCI/ADR-RES ovarian): > 100 µM
TGI (MDA-N): > 100 µM
TGI (U251 CNS): > 100 µM
TGI (SK-OV-3 ovarian): > 100 µM
TGI (SK-MEL-5 melanoma): 39 µM
TGI (CCRF-CEM leukemia): > 100 µM
TGI (MALME-3M melanoma): > 100 µM

CN/N=C(/C=C/c1ccccc1)C(C)C
TGI (SW-620 colon): > 100 µM
TGI (UACC-62 melanoma): > 100 µM
TGI (K-562 leukemia): > 100 µM
TGI (SR leukemia): > 100 µM
TGI (COLO 205 colon): > 100 µM
TGI (SNB-19 CNS): > 100 µM
TGI (RXF 393 renal): > 100 µM
TGI (MOLT-4 leukemia): > 100 µM
TGI (OVCAR-4 ovarian): > 100 µM
TGI (OVCAR-5 ovarian): > 100 µM
TGI (ACHN renal): > 100 µM
TGI (RPMI-8226 leukemia): > 100 µM
TGI (NCI-H522 lung): > 100 µM
TGI (HS 578T breast): > 100 µM
TGI (786-0 renal): > 100 µM
TGI (UO-31 renal): > 100 µM
TGI (TK-10 renal): > 100 µM
TGI (NCI-H23 lung): > 100 µM
TGI (SN12C renal): > 100 µM
TGI (HL-60(TB) leukemia): > 100 µM
TGI (A549 NSCLC): > 100 µM
TGI (KM12 colon): > 100 µM
TGI (SF-268 CNS): > 100 µM
TGI (SF-539 CNS): > 100 µM
TGI (SNB-75 CNS): > 100 µM
TGI (HCT-15 colon): > 100 µM
TGI (SK-MEL-28 melanoma): > 100 µM
TGI (SK-MEL-2 melanoma): > 100 µM
TGI (MDA-MB-435): > 100 µM
TGI (BT-549 breast): > 100 µM
TGI (HOP-62 NSCLC): > 100 µM
TGI (CAKI-1 renal): > 100 µM
TGI (M14 melanoma): > 100 µM
TGI (NCI-H226 lung): > 100 µM
TGI (IGROV1 ovarian): > 100 µM
TGI (OVCAR-8 ovarian): > 100 µM
TGI (T-47D breast): > 100 µM
TGI (HT29 colon): > 100 µM
TGI (HCC-2998 colon): > 100 µM
TGI (UACC-257 melanoma): > 100 µM
TGI (MCF7 breast): > 100 µM
TGI (HCT-116 colon): > 100 µM
TGI (EKVX NSCLC): > 100 µM
TGI (SF-295 CNS): > 100 µM
TGI (PC-3 prostate): > 100 µM
TGI (OVCAR-3 ovarian): > 100 µM
TGI (LOX IMVI melanoma): > 100 µM
TGI (DU-145 prostate): > 100 µM
TGI (NCI/ADR-RES ovarian): > 100 µM
TGI (MDA-N): > 100 µM
TGI (U251 CNS): > 100 µM
TGI (SK-OV-3 ovarian): > 100 µM
TGI (SK-MEL-5 melanoma): > 100 µM
TGI (CCRF-CEM leukemia): > 100 µM
TGI (MALME-3M melanoma): > 100 µM

From PubChem BioAssay (NCI)
